Results published in article PMC8748916, “Microbial enzymes induce colitis by reactivating triclosan in the mouse gastrointestinal tract” (Nature Communications, 2022).
Values joined by “and” are separate entries in the source; they are usually repeats but may differ in a detail not shown here. Identical values can stand only once. Like-named read-outs stand apart in the source and are kept apart here.

How the values were obtained:
human fecal bacteria = test: Conversion of TCS-G to TCS by anaerobically cultured human fecal bacteria in vitro; format: in vitro ADME; conditions: from TCS-G, replicates
C57BL/6 mice = test: Effects of GUSi on gut inflammation in mice not stimulated with DSS; format: in vivo; set-up: TNF (Fig.S12e) / IL-6 (Fig.S12e) / IL-10 (Fig.S12e) / MCP-1 (Fig.S12e): unit not given here
[1] = target: Eubacterium sp. CAG: 76 GUS (Eubacterium sp. CAG:76, UniProt Z9TO06ZFY0); test: In vitro IC50 assay (TCS-G to TCS conversion, HPLC); format: biochemical; conditions: Fig. 4c, triplicate
Eubacterium sp. CAG: 76 GUS, sequence (Z9TO06ZFY0 1-737): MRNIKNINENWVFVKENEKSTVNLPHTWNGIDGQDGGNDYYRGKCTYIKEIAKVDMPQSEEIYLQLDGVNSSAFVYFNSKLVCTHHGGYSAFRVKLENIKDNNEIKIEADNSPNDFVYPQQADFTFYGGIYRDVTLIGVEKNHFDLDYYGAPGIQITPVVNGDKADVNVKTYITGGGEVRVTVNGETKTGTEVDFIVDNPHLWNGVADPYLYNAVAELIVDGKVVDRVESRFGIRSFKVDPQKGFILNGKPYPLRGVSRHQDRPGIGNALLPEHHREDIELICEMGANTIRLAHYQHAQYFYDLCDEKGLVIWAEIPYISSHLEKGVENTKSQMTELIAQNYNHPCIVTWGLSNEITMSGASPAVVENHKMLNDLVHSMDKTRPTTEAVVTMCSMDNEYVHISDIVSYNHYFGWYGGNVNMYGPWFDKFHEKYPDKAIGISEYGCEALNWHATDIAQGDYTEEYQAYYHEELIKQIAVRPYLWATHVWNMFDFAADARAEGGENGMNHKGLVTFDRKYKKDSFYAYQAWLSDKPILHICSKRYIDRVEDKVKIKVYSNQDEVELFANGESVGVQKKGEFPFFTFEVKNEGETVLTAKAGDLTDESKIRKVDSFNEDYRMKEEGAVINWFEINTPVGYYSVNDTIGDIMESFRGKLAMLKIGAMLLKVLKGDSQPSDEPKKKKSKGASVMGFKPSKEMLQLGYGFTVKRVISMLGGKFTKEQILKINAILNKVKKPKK

E. coli = tested on: E. coli; set-up: method as in PMID 30062115; conditions: cited from earlier work
MC38 cells = test: Cell proliferation assay (MTT); format: cell-based, mouse
Experimental: Mouse (MC38) or human (Caco2 and HCT-116) intestinal cells were grown in DMEM medium fortified with 10% FBS (EMD Millipore Corporation). The cells were seeded in 96-well plates, then treated with GUSi or vehicle (0.2% v/v DMSO) for 24 h. Cell viability was determined using an MTT assay.
Fig. S14. GUSi treatment has little effect on the proliferation of mouse or human intestinal cells in vitro.
Mouse (MC38) or human (Caco2 and HCT-116) intestinal cells were treated with GUSi or vehicle (0.2% v/v
DMSO) for 24 h, then cell viability was analyzed using a MTT assay. The data are mean ± SEM, n = 5-6 per

Loop 1 GUS enzymes = test: In vitro IC50 assay, purified Loop 1 GUS enzymes (group statement); format: biochemical, gut microbial; conditions: Fp2-L1 GUS and several other Loop 1 GUS enzymes; conversion of TCS-G to TCS
Experimental: Reaction mixtures containing 10 µL GUS (10 nM final), 10 µL TCS-G (200 µM final), 5 µL inhibitor (various concentrations), and 25 µL buffer (50 mM HEPES, 50 mM NaCl, various pH) or (50 mM sodium acetate, 50 mM NaCl, various pH) were incubated for 10 min and quenched with 50 µL 25% trichloroacetic acid. Samples were centrifuged 10 min at 16,000 × g, and the supernatant was analyzed using the method described for the catalytic efficiency assay. Inhibition was calculated by the equation below:1 %inhibition=100×(1−(AUCinh−AUCmax)/(AUCmin−AUCmax)) where AUCmin is the signal of the uninhibited reaction, AUCmax is the signal of the 100% inhibited reaction, and AUCinh is the signal of the reaction at a given concentration of inhibitor. Percent inhibition values were plotted against the log of inhibitor concentration, and GraphPad Prism 8.0 was used to determine IC50 values.

mammalian GUS enzyme = tested on: mammalian GUS enzyme; set-up: method as in PMID 30062115; conditions: cited from earlier work
[2] = tested on: enzymes extracted from human fecal samples; test: In fimo inhibition assay (TCS-G processing by human fecal extracts); format: biochemical; conditions: for % Inhibition: Fig. 4d, triplicate
Experimental: Fecal extracts were prepared and proteomic analysis was performed exactly as previously described. In total, 10 g of frozen human fecal sample was thawed and added to 25 mL extraction buffer (25 mM HEPES, 25 mM NaCl pH 6.5 with Roche Complete protease inhibitor tablet) and 0.5 g autoclaved garnet beads. The mixture was vortexed until homogenous and centrifuged at low speed (300 × g for 5 min at 4 °C). The supernatant was decanted. In all, 25 mL buffer was added to the pellet and the vortex and centrifugation steps repeated. The supernatants from these steps were then combined and centrifuged at low speed for two more cycles. The resultant supernatant was sonicated twice using 1 s pulses for 1.5 min and the lysate was centrifuged at 17,000 × g for 20 min in a Beckman Coulter J2-HC centrifuge. The decanted lysate was then washed with several exchanges of extraction buffer to remove metabolites and small molecules. Total protein concentration was quantitated using a Bradford assay. The fecal lysate was diluted to 1 mg/mL concentration and snap-frozen in small aliquots.
Reaction mixtures contained 5 µL fecal extract (0.1 mg/mL final), 10 µL TCS-G (200 µM final), 5 µL GUSi (10, 1, or 0.1 µM final), and 30 µL assay buffer (25 mM HEPES, 25 mM NaCl, pH 6.5). Reactions were quenched at 30 min with 50 µL 25% trichloroacetic acid. Samples were centrifuged 20 min at 16,000 × g in a tabletop centrifuge, and the supernatant was analyzed via the same HPLC method described for the catalytic efficiency assay. Controls contained 5 µL buffer in place of GUSi. Inhibition was calculated using Eq. 1.

[3] = tested on: gut microbial β-glucuronidase (GUS) enzymes; test: Catalytic efficiency assay (HPLC) of TCS-G to TCS conversion by purified GUS enzymes; format: biochemical
[4] = tested on: Fp2-L1 GUS mutant proteins; test: Catalytic efficiency assay, wild-type and mutant Fp2-L1 GUS; format: biochemical, F. prausnitzii; conditions: Fig. 3h, replicates 1-3
[5] = 1 mg/kg GUSi via oral gavage, 3- to 4-week treatment
[6] = cytokine level, individual mice, no DSS
[7] = gene expression, individual mice, no DSS

## Oc1cc(Cl)ccc1Oc1ccc(Cl)cc1Cl [TCS, Triclosan]
Human fecal bacteria
  TCS formed: 10.13 pmol and 12.20 pmol and 15.57 pmol

## C1CCc2c(c(N3CCOCC3)nc3sc4c(N5CCNCC5)nnnc4c23)C1 [GUSi, UNC10201652]
C57BL/6 mice; [5]
  effect on body weight: little effects
  effect on colon histology: little effects
  effect on colon length: little effects
  effect on colonic or systematic inflammation: little effects
C57BL/6 mice; [6]
  IFN (Fig.S12e): 0
  IL-6 (Fig.S12e): 13.43 and 0 and 6.45
  IL-10 (Fig.S12e): 37.4 and 0 and 198.61 and 44.6 and 23.86
  IL-12P70 (Fig.S12e): 25.71 and 0 and 88.12
  MCP-1 (Fig.S12e): 48.03 and 146.49 and 57.21 and 61.62 and 184.9 and 179.76 and 331.3 and 143.93
  TNF (Fig.S12e): 60.3 and 20.04 and 10.87 and 8.58 and 0 and 48.52 and 31.51 and 26.47
C57BL/6 mice; [7]
  ifn (Fig.S12d): 0.5314 and 0.5552 and 0.6727 and 2.025 and 1.546 and 2.975 and 0.7505 and 0.9593
  il6 (Fig.S12d): 0.9822 and 0.6373 and 0.485 and 1.527 and 0.9215 and 0.6364 and 1.1212 and 1.239
  il17 (Fig.S12d): 1.45 and 0.9375 and 0.5532 and 1.296 and 0.6529 and 0.514 and 0.9732 and 1.7301
  il-1b (Fig.S12d): 1.675 and 3.673 and 1.563 and 0.709 and 1.249 and 2.221 and 3.587 and 1.198
  il-10 (Fig.S12d): 1.7121 and 1.046 and 0.8638 and 1.378 and 1.892 and 1.921 and 0.8229 and 0.4425
  il-23 (Fig.S12d): 1.384 and 0.7725 and 0.7614 and 1.398 and 2.3746 and 0.7478 and 0.414 and 0.4606
  mcp1 (Fig.S12d): 1.246 and 0.6949 and 0.7972 and 1.205 and 1.387 and 0.8717 and 0.5743 and 0.5267
  tlr-4 (Fig.S12d): 1.193 and 1.155 and 1.078 and 1.23 and 1.258 and 1.02 and 0.5994 and 0.6478
  tnf (Fig.S12d): 0.9505 and 1.516 and 0.4248 and 0.7567 and 1.942 and 2.3131 and 2.563 and 2.05
[1]; GUSi 11.1111 uM
  inhibition at 11.1111 µM: 57.2%
[1]; GUSi 33.3333 uM
  inhibition at 33.3333 µM: 73.6%
[1]; GUSi 100 uM
  inhibition at 100 µM: 84.1%
E. coli
  effect on growth of E. coli: no effect
MC38 cells; 24-h treatment, concentration up to 10 µM
  effect on cell growth (MTT): little effect
MC38 cells; MC38, concentration 1, replicates
  Cell proliferation (Fig. S14): 97.1748 and 94.9589 and 98.929 and 107.192 and 94.0356 and 103.315
MC38 cells; MC38, concentration 2, replicates
  Cell proliferation (Fig. S14): 103.453 and 99.2983 and 100.314 and 103.361 and 103.084 and 108.023
MC38 cells; MC38, concentration 5, replicates
  Cell proliferation (Fig. S14): 85.9108 and 74.139 and 84.9875 and 91.9121 and 86.7418 and 84.0181
MC38 cells; MC38, concentration 10, replicates
  Cell proliferation (Fig. S14): 68.784 and 87.3419 and 84.2489 and 91.7736 and 82.9102
Loop 1 GUS enzymes
  IC50: 640 to 4900 nM
Mammalian GUS enzyme
  effect on the activity of mammalian GUS enzyme: no effect
[2]; human fecal extracts, GUSi 10, 1 or 0.1 µM
  effect on TCS-G processing by fecal enzyme mixtures ex vivo: inhibited TCS-G processing
[2]; human fecal sample F3, 0.1 uM GUSi
  % Inhibition: 26.0315% and 22.661% and 26.9159%
[2]; human fecal sample F3, 1 uM GUSi
  % Inhibition: 55.0638% and 49.4467% and 55.1636%
[2]; human fecal sample F3, 10 uM GUSi
  % Inhibition: 63.3658% and 70.4225% and 80.8879%
[2]; human fecal sample M1, 0.1 uM GUSi
  % Inhibition: 43.1579% and 25.7515% and 43.5009%
[2]; human fecal sample M1, 1 uM GUSi
  % Inhibition: 77.2204% and 69.1166% and 76.6073%
[2]; human fecal sample M1, 10 uM GUSi
  % Inhibition: 87.4836% and 92.1188% and 91.6683%
[2]; human fecal sample M3, 1 uM GUSi
  % Inhibition: 44.8187% and 47.2169% and 47.9485%
[2]; human fecal sample M3, 10 uM GUSi
  % Inhibition: 84.9872% and 79.6161% and 93.8804%

## O=C(O)C1OC(Oc2cc(Cl)ccc2Oc2ccc(Cl)cc2Cl)C(O)C(O)C1O (centres unmarked) [TCS-G, triclosan-glucuronide]
[3]
  Catalytic efficiency: 221350 M⁻¹ s⁻¹ and 261200 M⁻¹ s⁻¹ and 185500 M⁻¹ s⁻¹
[3]; Enzyme: B. uniformis 2, Fig. 3b, replicates 1-3
  Catalytic efficiency: 26480 M⁻¹ s⁻¹ and 25620 M⁻¹ s⁻¹ and 34030 M⁻¹ s⁻¹
[3]; Enzyme: Clostridiales sp., Fig. 3b, replicates 1-3
  Catalytic efficiency: 421200 M⁻¹ s⁻¹ and 564000 M⁻¹ s⁻¹ and 643571 M⁻¹ s⁻¹
[3]; Enzyme: E. coli, Fig. 3b, replicates 1-3
  Catalytic efficiency: 25610 M⁻¹ s⁻¹ and 27630 M⁻¹ s⁻¹ and 30620 M⁻¹ s⁻¹
[3]; Enzyme: E. eligens, Fig. 3b, replicates 1-3
  Catalytic efficiency: 789000 M⁻¹ s⁻¹ and 987900 M⁻¹ s⁻¹ and 767700 M⁻¹ s⁻¹
[3]; Enzyme: Eubacterium sp. CAG: 76, Fig. 3b, replicates 1-3
  Catalytic efficiency: 294800 M⁻¹ s⁻¹ and 499700 M⁻¹ s⁻¹ and 451000 M⁻¹ s⁻¹
[3]; Enzyme: F. prausnitzii 2-L1, Fig. 3b, replicates 1-3
  Catalytic efficiency: 876200 M⁻¹ s⁻¹ and 975000 M⁻¹ s⁻¹ and 757000 M⁻¹ s⁻¹
[3]; Enzyme: F. prausnitzii, Fig. 3b, replicates 1-3
  Catalytic efficiency: 373850 M⁻¹ s⁻¹ and 362000 M⁻¹ s⁻¹ and 260800 M⁻¹ s⁻¹
[3]; Enzyme: R. gnavus 3, Fig. 3b, replicates 1-3
  Catalytic efficiency: 816300 M⁻¹ s⁻¹ and 891300 M⁻¹ s⁻¹ and 748300 M⁻¹ s⁻¹
[3]; Enzyme: R. hominis 2, Fig. 3b, replicates 1-3
  Catalytic efficiency: 168600 M⁻¹ s⁻¹ and 249500 M⁻¹ s⁻¹ and 277800 M⁻¹ s⁻¹
[3]; Enzyme: R. hominis 3, Fig. 3b, replicates 1-3
  Catalytic efficiency: 801500 M⁻¹ s⁻¹ and 763200 M⁻¹ s⁻¹ and 1075600 M⁻¹ s⁻¹
[3]; Enzyme: R. inulinvorans, Fig. 3b, replicates 1-3
  Catalytic efficiency: 450800 M⁻¹ s⁻¹ and 617200 M⁻¹ s⁻¹ and 689000 M⁻¹ s⁻¹
[4]; Enzyme: Fp 2-L1 M362A
  Catalytic efficiency: 344000 M⁻¹ s⁻¹ and 207500 M⁻¹ s⁻¹ and 364600 M⁻¹ s⁻¹
[4]; Enzyme: Fp 2-L1 M454A
  Catalytic efficiency: 1202500 M⁻¹ s⁻¹ and 1255200 M⁻¹ s⁻¹ and 1243800 M⁻¹ s⁻¹
[4]; Enzyme: Fp 2-L1 M455A
  Catalytic efficiency: 1203800 M⁻¹ s⁻¹ and 1137600 M⁻¹ s⁻¹ and 1168500 M⁻¹ s⁻¹
[4]; Enzyme: Fp 2-L1 Y479A
  Catalytic efficiency: 0 M⁻¹ s⁻¹
